Measured values: PubChem BioAssay (NCI)
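Results reflect a 48-hour exposure of cells in 96-well plates to compound at five concentrations. TGI is the concentration that stops growth completely.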

Columns and labels:
Assay in all cases: NCI-60 cell line screen, 48 h
CCRF-CEM leukemia = system: CCRF-CEM leukemia
SNB-75 CNS = system: SNB-75 CNS
DU-145 prostate = system: DU-145 prostate
T-47D breast = system: T-47D breast
SK-MEL-2 melanoma = system: SK-MEL-2 melanoma
HOP-92 NSCLC = system: HOP-92 NSCLC
SW-620 colon = system: SW-620 colon
UO-31 renal = system: UO-31 renal
CAKI-1 renal = system: CAKI-1 renal
PC-3 prostate = system: PC-3 prostate
OVCAR-3 ovarian = system: OVCAR-3 ovarian
IGROV1 ovarian = system: IGROV1 ovarian
NCI-H226 lung = system: NCI-H226 lung
SK-MEL-28 melanoma = system: SK-MEL-28 melanoma
HCC-2998 colon = system: HCC-2998 colon
SK-MEL-5 melanoma = system: SK-MEL-5 melanoma
SF-268 CNS = system: SF-268 CNS
K-562 leukemia = system: K-562 leukemia
MALME-3M melanoma = system: MALME-3M melanoma
MDA-MB-231 breast = system: MDA-MB-231 breast

Compound	TGI (CCRF-CEM leukemia) [µM]	TGI (SNB-75 CNS) [µM]	TGI (DU-145 prostate) [µM]	TGI (T-47D breast) [µM]	TGI (SK-MEL-2 melanoma) [µM]	TGI (HOP-92 NSCLC) [µM]	TGI (SW-620 colon) [µM]	TGI (UO-31 renal) [µM]	TGI (CAKI-1 renal) [µM]	TGI (PC-3 prostate) [µM]	TGI (OVCAR-3 ovarian) [µM]	TGI (IGROV1 ovarian) [µM]	TGI (NCI-H226 lung) [µM]	TGI (SK-MEL-28 melanoma) [µM]	TGI (HCC-2998 colon) [µM]	TGI (SK-MEL-5 melanoma) [µM]	TGI (SF-268 CNS) [µM]	TGI (K-562 leukemia) [µM]	TGI (MALME-3M melanoma) [µM]	TGI (MDA-MB-231 breast) [µM]
C[Si](C)(N[Si](C)(C)OCCc1ccccc1)OCCc1ccccc1	> 100	> 100	> 100	> 100	> 100	> 100	> 100	> 100	> 100	> 100	> 100	> 100	> 100	> 100	> 100	> 100				
CC(C)(C)OC(=O)NC(Cc1ccc(O)cn1)C(=O)O (centres undefined)		> 100	> 100			> 100	> 100	> 100	> 100	> 100	> 100	> 100	> 100	> 100	> 100	> 100	> 100	> 100	> 100	> 100
CCN(CC)C1CCC(C2c3cc4c(cc3OC(N3CCOCC3)C2C)OCO4)CC1 (centres undefined)	> 100	> 100	> 100	> 96.7	42.2	> 100	> 100	> 100	> 100	> 100	99.1	> 100		> 100	40.3	> 55.7	> 100	> 100	90.7	
CC1=NC2c3c(-c4ccc(Cl)cc4)cn(-c4ccc(C)cc4)c3N=CN2N1 (centres undefined)	> 100	97.9	> 100		> 100	63.3	> 100	> 100	> 100	> 100	> 100	> 100	> 100	> 100	> 100	> 100	> 100	> 100	> 100	> 100
CCSc1cc2c(cc1O)CC[C@@H]1[C@@H]2CC[C@]2(C)[C@@H](O)CC[C@@H]12	30.8	29.6	74.9		37.7	24.3	13.2	30.1	26.4	18.9		25	35.1	28.9	27.5	22.7	55	21	23.8	18.8
O=C1CC2(CCC3=C(O2)c2ccccc2NC(=O)C3)C(=O)c2ccccc2N1 (centres undefined)	> 100	> 100			> 100		> 100	> 100			> 100	> 100	> 100	> 100		> 100	> 100	> 100	> 100	
COc1cc(/C=N\c2nc(-c3ccc(NS(=O)(=O)c4ccc(Cl)c(OC)c4)cc3)cs2)ccc1O	> 100	> 100	> 100	59.1	> 100	> 100	> 100	> 100	> 100	> 100	> 100	> 100	> 100	> 100		> 100	> 100	> 100	> 100	
